According to patent publication US20230107216A1, “PANTETHEINE DERIVATIVES AND USES THEREOF” (Comet Therapeutics, Inc., priority 2018, published 2023):
Where two headings read alike, the source gives them in different places.

Legend:
[1] = tested on: Bronchial epithelial cells co-cultured with dermal fibroblast (BF4T system); assay: BioMAP BF4T system (TNFα and IL-4); type: cell-based, human; details: for activation at 10 µM / activation at 1 µM: Homo sapiens, 24 h, read-out: % increase in VCAM-1
[2] = tested on: primary culture of rat embryo mesencephalic cells (microglia, astrocytes and neurons) exposed to LPS; assay: Neuroprotective effect on damage induced by LPS on culture of mesencephalic neurons (NO, TNF-α, IL-1β, TH positive neurons); type: cell-based; details: after 5 days of LPS exposure; for inhibition at 10 µM / inhibition at 50 µM: Rattus norvegicus, Neuron, 120 h, read-out: % reversion of TH positive neurons
In short: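 E15 Wistar rat ventral mesencephalic cultures, day 7, pretreated 1 h with compound (0.1% DMSO) before LPS 10 ng/ml. NO (Griess) at 24 h and 5 days and IL-1β/TNF-α (ELISA) at 24 h, expressed vs LPS control = 100%; TH+ neurons counted by imaging at 5 days, vs non-intoxicated = 100%.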

[3] = tested on: primary fibroblasts GM00649, GM06225, GM00612, GM00444, GM03672; assay: MMP, ROS and ATP multiplex (ArrayScan); type: cell-based; details: Homo sapiens, Fibroblast, procedure Example 838, read-out: Decreased ROS by at least 10%; for inhibition at 50 µM: Leigh GM03672, 50 μM (table line r25)
Protocol: Cell culture and treatments. Primary adherent fibroblasts were cultured in minimum essential medium (MEM) (Gibco, 25030081) supplemented with 2 mM L-Glutamine (Gibco, 25030081), 15% fetal bovine serum (FBS) (Gibco, 26400044) and 1% penicillin/streptomycin (Gibco, 5140122) at 37° C. and 5% CO2. Cells were collected for either passaging or experiment at ˜70-80% confluence. Cells were obtained by trypsinization and seeded at 10000 cells/well in cell culture microplates (Seahorse Bioscience, 101085-004) and allowed to adhere for 16 hours in culture media. After media was refreshed with DMEM (Agilent Seahorse 103575-100) supplemented with 1 mM glucose and 10% FBS (Gibco, 26400044). At the end of the incubation period, the cells were loaded with the relevant dye/antibody for each cell health marker. The assay provided simultaneous measurement of cell health parameters including cell count, ROS formation (DHE), mitochondrial membrane potential (MitoTracker®) and cellular ATP content (CellTiter-Glo®, Promega). The plates were then scanned using an automated fluorescent cellular imager, ArrayScan® (Thermo Scientific Cellomics). Assay conditions were optimized by one skilled in the art.
Primary cells used in this example were obtained from Coriell Institute for Medical Research and consisted of GM00649, MSUD (Maple Syrup Urine Disease) Tyle IA; GM06225, Kearns-Sayre Syndrome; GM00612, MSUD (Maple Syrup Urine Disease) Tyle II GM00444, Pyruvate Carboxylase Deficiency and GM03672, Leigh Syndrome.

[4] = tested on: Peripheral blood mononuclear cells co-cultured with B-cells (BT system); assay: cells; details: Homo sapiens, 72 h; for activation at 1 µM / activation at 10 µM: read-out: % increase in sIL-6
[5] = 10 uM, procedure of Example 830

`COC(=O)CC(SCCNC(=O)CCNC(=O)[C@H](O)C(C)(C)COC(C)=O)C(=O)OC` (stereo partly drawn) [Compound 149, 1,4-dimethyl 2-[(2-[3-[(2R)-4-(acetyloxy)-2-hydroxy-3,3-dimethylbutanamido]propanamido]ethyl)sulfanyl]butanedioate] was tested, and the “% decrease in MMP-9” value ([1]; 1 uM, procedure of Example 830) was at least 10%, the “% increase in Eotaxin-3” value [1, 5] was at least 10% and the activation at 10 µM [1, 5] was at least 10%.

Work on `C[C@@H](O)CC(=O)SCCNC(=O)CCNC(=O)[C@H](O)C(C)(C)CO` [Compound 38, S-2-{3-[(R)-2,4-dihydroxy-3,3-dimethylbutyrylamino]propionylamino} ethyl (R)-3-hydroxybutanethioate] yielded an inhibition at 10 µM ([2]; 10 uM, list at threshold 15%) of at least 15%.

`CC(C)(COC(=O)OCC[N+](C)(C)C)[C@@H](O)C(=O)NCCC(=O)NCCSC(=O)CCC(=O)O` [Compound 116, [2-([[(3R)-3-[[2-([2-[(3-carboxypropanoyl)sulfanyl]ethyl]carbamoyl)ethyl]carbamoyl]-3-hydroxy-2,2-dimethylpropoxy]carbonyl]oxy)ethyl]trimethylazanium] was tested, and the “% increase in MMP-3” value ([1]; 1 uM, procedure of Example 830) was at least 10%, the “% increase in keratin 8/18” value ([1]; 1 uM, procedure of Example 830) was at least 10% and the “% decrease in IL-1α” value ([1]; 10 uM) was at least 10%. The activation at 10 µM [1, 5] was at least 10% and the inhibition at 10 µM ([2]; 10 uM, list at threshold 15%) was at least 15%.

Compound `C[C@H](O)CC(=O)CC(=O)SCCNC(=O)CCNC(=O)[C@H](O)C(C)(C)CO` [Compound 1306, (2R)-2,4-dihydroxy-N-[2-[(2-[[(5S)-5-hydroxy-3-oxohexanoyl]sulfanyl]ethyl)carbamoyl]ethyl]-3,3-dimethylbutanamide] has an inhibition at 50 µM [3] of at least 10%.

With `COC(=O)CCC(=O)SCCNC(=O)CCNC(=O)[C@H](OC(=O)CNC(C)=O)C(C)(C)CO` [Compound 1298, methyl 4-[(2-[3-[(2R)-2-[(2-acetamidoacetyl)oxy]-4-hydroxy-3,3-dimethylbutanamido]propanamido]ethyl)sulfanyl]-4-oxobutanoate] the activation at 1 µM [4] was at least 10% and the activation at 10 µM [1, 5] was at least 10%.

For `CC(=O)SCCNC(=O)CCNC(=O)[C@H](O)C(C)(C)COC(=O)[C@H](C)N` [Compound 502, (3R)-3-[(2-[[2-(acetylsulfanyl)ethyl]carbamoyl]ethyl)carbamoyl]-3-hydroxy-2,2-dimethylpropyl (2S)-2-aminopropanoate], the inhibition at 1 µM ([4]; read-out: % decrease in sIL-17) was at least 20%, the activation at 10 µM [4] was at least 10% and the “% decrease in IL-1α” value ([1]; 10 uM) was at least 10%. The activation at 1 µM ([1]; 1 uM, procedure of Example 830) was at least 10%.

With `CC(C)(CO)[C@@H](O)C(=O)NCCC(=O)NCCSC(=O)[C@@H](N)Cc1ccc(O)c(O)c1` [Compound 371, (2R)—N-[2-[(2-[[(2S)-2-amino-3-(3,4-dihydroxyphenyl)propanoyl]sulfanyl]ethyl)carbamoyl]ethyl]-2,4-dihydroxy-3,3-dimethylbutanamide] the inhibition at 10 µM ([4]; read-out: % decrease in sIL-17) was at least 20%, the “% increase in MCP-1” value ([1]; 1 uM, procedure of Example 830) was at least 10% and the “% increase in MMP-9” value ([1]; 1 uM, procedure of Example 830) was at least 10%. For the same compound, the “% increase in Eotaxin-3” value [1, 5] was at least 10% and the activation at 1 µM ([1]; 1 uM, procedure of Example 830) was at least 10%.

With `CC(C)(CO)[C@@H](O)C(=O)NCCC(=O)NCCSC(=O)CCCO` [Compound 1304, (2R)-2,4-dihydroxy-N-[2-([2-[(4-hydroxybutanoyl)sulfanyl]ethyl]carbamoyl)ethyl]-3,3-dimethylbutanamide] the inhibition at 50 µM [3] was at least 10%.

With `CC(C)(CO)[C@@H](O)C(=O)NCCC(=O)NCCSC(CC(=O)OCC[N+](C)(C)C)C(=O)O` (stereo partly drawn) [Compound 51, [2-([3-carboxy-3-[(2-[3-[(2R)-2,4-dihydroxy-3,3-dimethylbutanamido]propanamido]ethyl)sulfanyl]propanoyl]oxy)ethyl]trimethylazanium] the “% decrease in NO release relative to LPS alone” value ([2]; 10 uM) was at least 5%, the inhibition at 50 µM ([2]; 50 uM, list at threshold 15%) was at least 15% and the inhibition at 50 µM ([2]; 50 uM, list at threshold 50%) was at least 50%.

In the case of `COC(=O)CCC(=O)SCCNC(=O)CCNC(=O)[C@H](OC(=O)CN)C(C)(C)CO` [Compound 1294, methyl 4-[(2-[3-[(2R)-2-[(2-aminoacetyl)oxy]-4-hydroxy-3,3-dimethylbutanamido]propanamido]ethyl)sulfanyl]-4-oxobutanoate], the inhibition at 1 µM ([4]; read-out: % decrease in sIL-17) is reported as at least 20% and the “% decrease in tPA” value [1, 5] is reported as at least 10%.

`COC(=O)CCC(=O)SCCNC(=O)CCNC(=O)[C@H](O)C(C)(C)COC(C)=O` [Compound 138] was tested, and the inhibition at 1 µM ([4]; read-out: % decrease in sIL-17) was at least 20%, the inhibition at 50 µM ([2]; 50 uM, list at threshold 15%) was at least 15% and the inhibition at 50 µM ([2]; 50 uM, list at threshold 50%) was at least 50%.

With `C[C@@H](O)CC(=O)CC(=O)SCCNC(=O)CCNC(=O)[C@H](O)C(C)(C)CO` [Compound 42, (2R)-2,4-dihydroxy-N-[2-[(2-[[(5R)-5-hydroxy-3-oxohexanoyl]sulfanyl]ethyl)carbamoyl]ethyl]-3,3-dimethylbutanamide] the “% decrease in IL-1α” value ([1]; 10 uM) was at least 10%, the “% increase in Eotaxin-3” value [1, 5] was at least 10% and the “% increase in MMP-3” value [1, 5] was at least 10%. The “% increase in keratin 8/18” value [1, 5] was at least 10%, the activation at 10 µM [1, 5] was at least 10% and the “% decrease in NO release relative to LPS alone” value ([2]; 50 uM) was at least 5%. For the same compound, the inhibition at 50 µM ([2]; 50 uM, list at threshold 15%) was at least 15% and the inhibition at 50 µM ([2]; 50 uM, list at threshold 50%) was at least 50%.

`CC(C)(CO)[C@@H](O)C(=O)NCCC(=O)NCCSC(=O)CC(=O)CCC(=O)O` [Compound 2, 6-[(2-[3-[(2R)-2,4-dihydroxy-3,3-dimethylbutanamido]propanamido]ethyl)sulfanyl]-4,6-dioxohexanoic acid] was tested, and the inhibition at 50 µM [3] was at least 10% and the inhibition at 5 µM ([3]; PC GM00444, 5 μM) was at least 10%.

For `COC(=O)CC(C(C)=O)C(=O)SCCNC(=O)CCNC(=O)[C@H](O)C(C)(C)CO` (stereo partly shown) [Compound 410], the inhibition at 50 µM [3] was at least 10%, the “% decrease in NO release relative to LPS alone” value ([2]; 50 uM) was at least 10% and the inhibition at 50 µM ([2]; 50 uM, list at threshold 15%) was at least 15%.

With `CC(=O)SCCNC(=O)CCNC(=O)[C@H](O)C(C)(C)COC(=O)[C@@H](N)Cc1ccc(O)c(O)c1` [Compound 498, (3R)-3-[(2-[[2-(acetylsulfanyl)ethyl]carbamoyl]ethyl)carbamoyl]-3-hydroxy-2,2-dimethylpropyl (2S)-2-amino-3-(3,4-dihydroxyphenyl)propanoate] the activation at 10 µM [4] was at least 10%, the “% increase in 1L-8” value ([1]; 1 uM, procedure of Example 830) was at least 10% and the “% increase in MCP-1” value ([1]; 1 uM, procedure of Example 830) was at least 10%. For the same compound, the “% decrease in IL-1α” value ([1]; 10 uM) was at least 10%, the “% increase in Eotaxin-3” value [1, 5] was at least 10% and the “% increase in MMP-9” value [1, 5] was at least 10%. For the same compound, the activation at 10 µM [1, 5] was at least 10% and the inhibition at 50 µM ([2]; 50 uM, list at threshold 15%) was at least 15%.

Work on `CC(=O)OCC(C)(C)[C@@H](O)C(=O)NCCC(=O)NCCSC(=O)CC(=O)CCC(=O)O` [Compound 140, 6-[(2-[3-[(2R)-4-(acetyloxy)-2-hydroxy-3,3-dimethylbutanamido]propanamido]ethyl)sulfanyl]-4,6-dioxohexanoic acid] yielded an inhibition at 50 µM [3] of at least 10%, an inhibition at 50 µM ([2]; 50 uM, list at threshold 15%) of at least 15% and an inhibition at 50 µM ([2]; 50 uM, list at threshold 50%) of at least 50%.

With `CCCCCCC(=O)SCCNC(=O)CCNC(=O)[C@H](O)C(C)(C)CO` [Compound 372, (2R)—N-(2-[[2-(heptanoylsulfanyl)ethyl]carbamoyl]ethyl)-2,4-dihydroxy-3,3-dimethylbutanamide] the activation at 1 µM [4] was at least 10% and the activation at 1 µM ([1]; 1 uM, procedure of Example 830) was at least 10%.

In the case of `CC(=O)OCC(C)(C)[C@@H](OC(C)=O)C(=O)NCCC(=O)NCCSC(C)=O` [Compound 1264, (1R)-3-(acetyloxy)-1-[(2-[[2-(acetylsulfanyl)ethyl]carbamoyl]ethyl)carbamoyl]-2,2-dimethylpropyl acetate], the activation at 1 µM ([1]; 1 uM, procedure of Example 830) is reported as at least 10%.

`CCC(=O)CC(=O)SCCNC(=O)CCNC(=O)[C@H](O)C(C)(C)CO` [Compound 382, (2R)-2,4-dihydroxy-3,3-dimethyl-N-[2-([2-[(3-oxopentanoyl)sulfanyl]ethyl]carbamoyl)ethyl]butanamide] gave an inhibition at 50 µM [3] of at least 10%.
